Laboratory results: paper PMC8642284 (Structure (London, England : 1993), 2021)

T1: ACAT2 (Homo sapiens, UniProt O75908)
T1 sequence (O75908 1-522): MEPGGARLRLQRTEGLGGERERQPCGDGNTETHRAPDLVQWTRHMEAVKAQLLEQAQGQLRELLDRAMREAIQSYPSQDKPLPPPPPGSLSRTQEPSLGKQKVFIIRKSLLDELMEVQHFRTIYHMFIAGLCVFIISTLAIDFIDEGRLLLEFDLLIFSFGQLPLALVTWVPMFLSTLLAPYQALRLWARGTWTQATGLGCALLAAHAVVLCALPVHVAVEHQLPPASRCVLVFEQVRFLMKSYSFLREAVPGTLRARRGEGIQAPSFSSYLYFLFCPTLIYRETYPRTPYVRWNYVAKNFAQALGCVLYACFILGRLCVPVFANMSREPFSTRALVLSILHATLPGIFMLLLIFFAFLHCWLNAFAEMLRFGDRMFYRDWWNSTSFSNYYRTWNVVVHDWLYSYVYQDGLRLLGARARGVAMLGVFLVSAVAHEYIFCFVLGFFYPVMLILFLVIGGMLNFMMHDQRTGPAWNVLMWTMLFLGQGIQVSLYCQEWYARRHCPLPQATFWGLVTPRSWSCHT

B1: human ACAT2 (acyl-CoA:cholesterol acyltransferase 2) (enzyme)
chain: EPGGARLRLQRTEGLGGERERQPCGDGNTETHRAPDLVQWTRHMEAVKAQLLEQAQGQLRELLDRAMREAIQSYPSQDKPLPPPPPGSLSRTQEPSLGKQKVFIIRKSLLDELMEVQHFRTIYHMFIAGLCVFIISTLAIDFIDEGRLLLEFDLLIFSFGQLPLALVTWVPMFLSTLLAPYQALRLWARGTWTQATGLGCALLAAHAVVLCALPVHVAVEHQLPPASRCVLVFEQVRFLMKSYSFLREAVPGTLRARRGEGIQAPSFSSYLYFLFCPTLIYRETYPRTPYVRWNYVAKNFAQALGCVLYACFILGRLCVPVFANMSREPFSTRALVLSILHATLPGIFMLLLIFFAFLHCWLNAFAEMLRFGDRMFYRDWWNSTSFSNYYRTWNVVVHDWLYSYVYQDGLRLLGARARGVAMLGVFLVSAVAHEYIFCFVLGFFYPVMLILFLVIGGMLNFMMHDQRTGPAWNVLMWTMLFLGQGIQVSLYCQEWYARRHCPLPQATFWGLVTPRSWSCHT

Columns and labels:
[1] = molecular target: T1, ACAT2; assay: cryo-EM structure; type: biochemical
[2] = molecular target: the molecule itself; assay: cryo-EM structure

Row | Molecule | IC50 [1] [nM] | stoichiometry N [2]
1 | CC(C)c1cccc(C(C)C)c1NC(=O)NCC1(c2ccc(N(C)C)cc2)CCCC1 [nevanimibe] | 710 | –
2 | B1 | – | 4
